The record followed here is ChEMBL document CHEMBL1201862, “PubChem BioAssay data set” (2004).

What is called IC50 is the concentration at which inhibition is half-maximal. For orientation: EC50 means the concentration that produces a half-maximal response. What is called AC50 is the concentration at which the activity in the assay is half-maximal.

The source made the active and inactive calls.

The target in one experiment is Genome polyprotein (dengue virus type 2, UniProt P29990). Description: Dengue-2 NS5 methyltransferase inhibitors, primary screen, biochemical, confirmation dose response (AID 588689). Format: functional.
A short description of experiment [1]: HIV-1 Env-mediated cell fusion inhibitors, dose response, CCR5-tropic Env (AID 2279). It counts as functional.
The target of experiment [2] is Voltage-gated inwardly rectifying potassium channel KCNH2 (Homo sapiens, UniProt Q12809). Briefly: hERG protection from proarrhythmic block, potency, dose response, cell-based, thallium flux (AID 2121). It counts as ADME. For orientation: The hERG channel carries a current that helps repolarise heart muscle cells.
Experiment [3] in a line: A cytotoxicity screen of small molecule inhibitors of the PhoP region in Salmonella typhi identified in the primary screen. [Related pubchem assays: 1850, 1864, 1985 ]. Format: functional.
The target in experiment [4] is T1, Replicative DNA helicase DnaB (Mycobacterium tuberculosis, UniProt P9WMR3).
T1 sequence (P9WMR3 whole entry): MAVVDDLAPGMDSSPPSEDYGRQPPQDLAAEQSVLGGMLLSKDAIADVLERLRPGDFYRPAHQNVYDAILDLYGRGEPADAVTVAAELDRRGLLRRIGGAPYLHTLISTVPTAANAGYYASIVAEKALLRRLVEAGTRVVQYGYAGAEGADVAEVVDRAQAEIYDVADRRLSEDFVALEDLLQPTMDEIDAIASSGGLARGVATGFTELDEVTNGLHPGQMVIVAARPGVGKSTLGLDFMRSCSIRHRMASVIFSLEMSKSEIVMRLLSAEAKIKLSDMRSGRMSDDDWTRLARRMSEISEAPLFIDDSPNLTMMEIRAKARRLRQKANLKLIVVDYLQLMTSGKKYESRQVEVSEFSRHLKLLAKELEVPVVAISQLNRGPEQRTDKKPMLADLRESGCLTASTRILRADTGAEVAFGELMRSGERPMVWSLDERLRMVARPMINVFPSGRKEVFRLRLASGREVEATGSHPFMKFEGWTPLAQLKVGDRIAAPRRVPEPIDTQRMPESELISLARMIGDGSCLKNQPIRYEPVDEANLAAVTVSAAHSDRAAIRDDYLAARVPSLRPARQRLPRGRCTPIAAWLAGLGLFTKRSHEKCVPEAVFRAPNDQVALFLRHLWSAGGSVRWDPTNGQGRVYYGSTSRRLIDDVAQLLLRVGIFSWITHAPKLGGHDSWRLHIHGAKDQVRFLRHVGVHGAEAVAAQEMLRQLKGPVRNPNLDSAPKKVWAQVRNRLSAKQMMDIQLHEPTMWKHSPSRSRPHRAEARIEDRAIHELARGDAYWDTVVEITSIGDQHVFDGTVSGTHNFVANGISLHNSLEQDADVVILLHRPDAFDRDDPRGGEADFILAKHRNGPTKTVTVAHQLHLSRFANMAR
Briefly: DnaB intein splicing inhibitors, dose response, biochemical, cell-free fluorescence (AID 449749). Format: functional.

In experiment [5] the target is Induced myeloid leukemia cell differentiation protein Mcl-1 (Homo sapiens, UniProt Q07820). It counts as functional.
The target of experiment [6] is T2, Calpain-2 catalytic subunit (Sus scrofa, UniProt P43367).
T2 sequence (P43367 whole entry): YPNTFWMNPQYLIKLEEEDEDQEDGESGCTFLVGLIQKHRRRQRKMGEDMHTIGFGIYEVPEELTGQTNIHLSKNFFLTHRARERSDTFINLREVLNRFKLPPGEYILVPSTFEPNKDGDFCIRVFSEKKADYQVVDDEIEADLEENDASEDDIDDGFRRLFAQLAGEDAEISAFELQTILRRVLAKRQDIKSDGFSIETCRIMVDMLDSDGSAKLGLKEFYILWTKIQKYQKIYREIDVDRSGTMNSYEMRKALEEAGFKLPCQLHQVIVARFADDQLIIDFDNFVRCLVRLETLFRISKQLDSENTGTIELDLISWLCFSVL
Description: pig calpain II inhibitor potency, dose response, biochemical, fluorogenic peptide substrate (AID 1420). It counts as functional.

The target of another experiment is T3, Protein RecA (Mycobacterium tuberculosis, UniProt P9WHJ3).
T3 sequence (P9WHJ3 whole entry): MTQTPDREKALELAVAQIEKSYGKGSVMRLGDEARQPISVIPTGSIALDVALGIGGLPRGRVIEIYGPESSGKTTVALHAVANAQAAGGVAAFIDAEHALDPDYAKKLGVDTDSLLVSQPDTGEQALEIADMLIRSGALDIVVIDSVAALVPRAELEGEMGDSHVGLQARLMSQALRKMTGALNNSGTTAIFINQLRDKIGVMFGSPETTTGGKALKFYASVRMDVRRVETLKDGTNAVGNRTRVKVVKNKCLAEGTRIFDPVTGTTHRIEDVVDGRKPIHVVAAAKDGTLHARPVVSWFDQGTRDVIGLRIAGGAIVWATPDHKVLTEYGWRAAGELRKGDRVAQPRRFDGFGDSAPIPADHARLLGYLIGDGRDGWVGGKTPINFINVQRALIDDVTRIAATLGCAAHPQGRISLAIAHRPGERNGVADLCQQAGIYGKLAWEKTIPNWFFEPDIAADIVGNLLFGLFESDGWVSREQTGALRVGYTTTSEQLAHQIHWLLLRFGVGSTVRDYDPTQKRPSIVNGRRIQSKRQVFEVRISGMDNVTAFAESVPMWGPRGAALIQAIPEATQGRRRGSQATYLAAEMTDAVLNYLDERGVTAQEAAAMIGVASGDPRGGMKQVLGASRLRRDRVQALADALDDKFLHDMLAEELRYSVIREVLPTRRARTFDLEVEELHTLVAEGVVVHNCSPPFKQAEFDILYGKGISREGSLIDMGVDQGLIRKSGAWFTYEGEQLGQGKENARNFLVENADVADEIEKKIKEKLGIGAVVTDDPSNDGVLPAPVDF
Description: Fluorescence Cell-Free Homogeneous Dose Retest to Identify Inhibitors of RecA-Intein Splicing Activity. [Related pubchem assays (depositor defined):AID2097, AID2223, AID489010, AID492950]. Format: functional.

In another experiment the target is T4, Aminopeptidase N (Plasmodium falciparum FcB1/Columbia, UniProt O96935).
T4 sequence (O96935 whole entry): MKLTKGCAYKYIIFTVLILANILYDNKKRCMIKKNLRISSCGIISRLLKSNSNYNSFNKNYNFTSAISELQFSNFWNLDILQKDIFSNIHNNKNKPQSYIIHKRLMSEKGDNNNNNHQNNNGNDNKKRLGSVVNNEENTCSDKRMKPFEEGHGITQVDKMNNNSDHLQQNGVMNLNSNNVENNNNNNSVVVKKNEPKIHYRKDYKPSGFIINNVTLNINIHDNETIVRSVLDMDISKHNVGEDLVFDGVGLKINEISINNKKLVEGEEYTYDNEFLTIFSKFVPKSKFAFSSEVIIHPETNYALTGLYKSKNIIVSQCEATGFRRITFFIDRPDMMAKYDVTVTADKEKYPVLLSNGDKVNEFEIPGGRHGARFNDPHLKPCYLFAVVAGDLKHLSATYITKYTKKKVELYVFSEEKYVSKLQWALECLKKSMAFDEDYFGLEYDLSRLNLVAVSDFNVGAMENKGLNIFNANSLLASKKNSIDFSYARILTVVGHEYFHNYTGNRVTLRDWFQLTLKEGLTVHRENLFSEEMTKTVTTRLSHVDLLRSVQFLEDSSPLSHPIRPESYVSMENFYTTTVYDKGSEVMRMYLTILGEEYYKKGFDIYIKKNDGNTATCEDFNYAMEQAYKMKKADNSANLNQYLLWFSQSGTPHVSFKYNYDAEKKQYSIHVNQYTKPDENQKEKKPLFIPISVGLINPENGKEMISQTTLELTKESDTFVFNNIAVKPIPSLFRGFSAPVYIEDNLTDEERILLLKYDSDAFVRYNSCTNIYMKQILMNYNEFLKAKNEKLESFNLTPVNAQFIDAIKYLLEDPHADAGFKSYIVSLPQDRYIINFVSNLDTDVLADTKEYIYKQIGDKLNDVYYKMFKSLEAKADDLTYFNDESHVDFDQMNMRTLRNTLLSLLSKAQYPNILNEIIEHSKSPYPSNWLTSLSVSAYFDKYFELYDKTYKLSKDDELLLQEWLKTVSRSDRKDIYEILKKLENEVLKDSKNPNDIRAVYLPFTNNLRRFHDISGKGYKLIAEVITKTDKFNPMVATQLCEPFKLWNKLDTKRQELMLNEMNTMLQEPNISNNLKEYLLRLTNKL
Briefly: P. falciparum M1AAP inhibitors, biochemical, fluorogenic H-Leu-NHMec substrate, 1536-well (AID 1445). Set-up: species or system Plasmodium falciparum 3D7, 3D7.

The target in the next experiment is T5, Estrogen receptor (Homo sapiens, UniProt P03372).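 Note: potency for inhibiting coactivator peptide recruitment to the receptor.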
T5 sequence (P03372 whole entry): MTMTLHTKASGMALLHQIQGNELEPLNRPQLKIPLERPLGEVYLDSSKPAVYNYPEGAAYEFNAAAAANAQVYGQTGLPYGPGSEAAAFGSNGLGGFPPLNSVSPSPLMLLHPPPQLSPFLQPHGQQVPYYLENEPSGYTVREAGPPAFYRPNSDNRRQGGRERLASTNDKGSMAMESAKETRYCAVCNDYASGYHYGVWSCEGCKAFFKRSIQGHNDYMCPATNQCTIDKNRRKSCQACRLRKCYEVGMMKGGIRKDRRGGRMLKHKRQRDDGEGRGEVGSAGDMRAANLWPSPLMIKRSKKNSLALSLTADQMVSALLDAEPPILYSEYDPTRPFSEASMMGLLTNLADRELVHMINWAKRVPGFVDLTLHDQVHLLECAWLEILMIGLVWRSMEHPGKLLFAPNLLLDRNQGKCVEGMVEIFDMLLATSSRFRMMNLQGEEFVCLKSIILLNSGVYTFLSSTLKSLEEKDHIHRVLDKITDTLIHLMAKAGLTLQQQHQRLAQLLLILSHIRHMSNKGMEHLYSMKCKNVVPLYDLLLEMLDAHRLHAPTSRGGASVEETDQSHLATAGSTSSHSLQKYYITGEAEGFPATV

The target in experiment [7] is T6, Rac GTPase-activating protein 1 (Homo sapiens, UniProt Q9H0H5).
T6 sequence (Q9H0H5 whole entry): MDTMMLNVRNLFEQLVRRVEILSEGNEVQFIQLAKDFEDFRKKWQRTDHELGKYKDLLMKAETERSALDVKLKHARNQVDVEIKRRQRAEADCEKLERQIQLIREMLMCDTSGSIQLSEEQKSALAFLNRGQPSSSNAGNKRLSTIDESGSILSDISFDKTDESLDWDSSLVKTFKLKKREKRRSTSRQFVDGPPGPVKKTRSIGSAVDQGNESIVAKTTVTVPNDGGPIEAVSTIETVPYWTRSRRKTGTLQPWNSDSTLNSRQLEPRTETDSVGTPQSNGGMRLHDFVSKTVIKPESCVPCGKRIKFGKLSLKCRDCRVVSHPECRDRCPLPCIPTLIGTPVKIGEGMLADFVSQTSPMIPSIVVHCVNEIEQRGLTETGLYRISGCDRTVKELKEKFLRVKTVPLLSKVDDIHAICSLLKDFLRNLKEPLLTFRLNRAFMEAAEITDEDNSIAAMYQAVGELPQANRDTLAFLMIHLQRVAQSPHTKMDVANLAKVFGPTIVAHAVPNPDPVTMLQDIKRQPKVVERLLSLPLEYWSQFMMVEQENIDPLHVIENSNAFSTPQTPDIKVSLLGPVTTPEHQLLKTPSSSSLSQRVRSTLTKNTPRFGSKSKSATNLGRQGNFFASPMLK
Briefly: MgcRacGAP GTPase-activating activity inhibitors, confirmation, biochemical, ADP Hunter fluorescence, primary and confirmatory (AID 624330). It counts as functional.

Voltage-gated inwardly rectifying potassium channel KCNH2, sequence (Q12809 whole entry): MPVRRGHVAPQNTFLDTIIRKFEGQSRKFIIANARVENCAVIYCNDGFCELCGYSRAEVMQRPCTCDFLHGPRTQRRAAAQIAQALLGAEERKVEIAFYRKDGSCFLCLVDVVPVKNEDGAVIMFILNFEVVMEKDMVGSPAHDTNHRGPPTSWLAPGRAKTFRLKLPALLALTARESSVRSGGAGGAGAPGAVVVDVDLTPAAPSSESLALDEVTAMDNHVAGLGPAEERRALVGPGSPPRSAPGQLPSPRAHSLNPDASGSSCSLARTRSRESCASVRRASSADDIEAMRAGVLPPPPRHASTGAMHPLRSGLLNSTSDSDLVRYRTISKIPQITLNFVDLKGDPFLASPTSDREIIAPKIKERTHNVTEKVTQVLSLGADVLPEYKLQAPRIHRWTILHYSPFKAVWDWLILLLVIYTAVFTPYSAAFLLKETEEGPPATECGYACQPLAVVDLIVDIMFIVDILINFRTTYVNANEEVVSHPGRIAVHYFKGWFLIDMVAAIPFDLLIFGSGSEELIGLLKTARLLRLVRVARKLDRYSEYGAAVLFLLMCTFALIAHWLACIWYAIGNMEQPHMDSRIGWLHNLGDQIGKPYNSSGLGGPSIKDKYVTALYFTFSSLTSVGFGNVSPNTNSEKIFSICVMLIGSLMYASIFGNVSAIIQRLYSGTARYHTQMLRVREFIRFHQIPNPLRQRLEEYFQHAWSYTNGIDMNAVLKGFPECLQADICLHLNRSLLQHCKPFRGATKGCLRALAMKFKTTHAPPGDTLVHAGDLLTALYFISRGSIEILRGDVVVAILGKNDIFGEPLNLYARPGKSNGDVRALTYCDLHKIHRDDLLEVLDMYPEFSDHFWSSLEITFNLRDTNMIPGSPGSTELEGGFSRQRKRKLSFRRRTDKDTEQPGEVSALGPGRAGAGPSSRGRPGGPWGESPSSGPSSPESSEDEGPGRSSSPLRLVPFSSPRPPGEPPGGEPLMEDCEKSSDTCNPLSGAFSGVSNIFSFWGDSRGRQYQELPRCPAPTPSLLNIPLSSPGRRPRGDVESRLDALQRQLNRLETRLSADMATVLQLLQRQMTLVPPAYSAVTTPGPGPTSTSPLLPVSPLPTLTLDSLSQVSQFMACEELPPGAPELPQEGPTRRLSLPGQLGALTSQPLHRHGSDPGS
Genome polyprotein, sequence (P29990 2492-3391 limits assumed): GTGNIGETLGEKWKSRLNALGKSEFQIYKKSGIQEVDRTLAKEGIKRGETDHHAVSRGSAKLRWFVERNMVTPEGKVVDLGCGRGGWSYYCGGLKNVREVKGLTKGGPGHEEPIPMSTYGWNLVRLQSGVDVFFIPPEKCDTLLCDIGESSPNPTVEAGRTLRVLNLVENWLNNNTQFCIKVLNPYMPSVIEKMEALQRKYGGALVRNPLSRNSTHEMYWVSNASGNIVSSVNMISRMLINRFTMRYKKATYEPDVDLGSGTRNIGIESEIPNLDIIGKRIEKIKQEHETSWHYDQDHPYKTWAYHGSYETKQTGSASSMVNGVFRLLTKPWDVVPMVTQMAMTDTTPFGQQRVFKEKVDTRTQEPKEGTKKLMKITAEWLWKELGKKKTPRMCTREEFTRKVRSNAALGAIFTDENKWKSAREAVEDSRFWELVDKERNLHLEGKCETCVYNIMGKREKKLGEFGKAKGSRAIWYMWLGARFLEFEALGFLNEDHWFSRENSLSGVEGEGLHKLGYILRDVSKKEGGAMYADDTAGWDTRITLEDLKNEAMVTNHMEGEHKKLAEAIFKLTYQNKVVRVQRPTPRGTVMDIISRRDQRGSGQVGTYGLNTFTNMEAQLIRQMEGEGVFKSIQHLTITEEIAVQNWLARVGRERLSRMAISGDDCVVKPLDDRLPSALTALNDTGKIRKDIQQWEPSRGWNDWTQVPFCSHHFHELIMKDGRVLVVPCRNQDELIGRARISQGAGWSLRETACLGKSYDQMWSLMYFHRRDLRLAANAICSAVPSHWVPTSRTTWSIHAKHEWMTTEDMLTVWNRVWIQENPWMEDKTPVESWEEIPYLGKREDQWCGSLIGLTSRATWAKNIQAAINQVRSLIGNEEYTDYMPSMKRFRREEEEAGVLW
Induced myeloid leukemia cell differentiation protein Mcl-1, sequence (Q07820 whole entry): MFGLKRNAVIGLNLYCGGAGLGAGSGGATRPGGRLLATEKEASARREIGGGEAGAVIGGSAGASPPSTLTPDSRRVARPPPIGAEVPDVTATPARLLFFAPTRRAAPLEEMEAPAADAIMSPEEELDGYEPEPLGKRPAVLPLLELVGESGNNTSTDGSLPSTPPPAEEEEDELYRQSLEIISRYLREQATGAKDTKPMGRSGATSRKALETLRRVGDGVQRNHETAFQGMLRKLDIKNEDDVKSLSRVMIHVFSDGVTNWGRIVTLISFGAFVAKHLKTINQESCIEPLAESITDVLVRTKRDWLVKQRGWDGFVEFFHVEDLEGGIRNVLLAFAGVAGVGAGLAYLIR

For the molecule `O=C(CCN1C(=O)/C(=C\C=C\c2ccccc2)SC1=S)Nc1ccccc1C(=O)O`, the IC50 is 64.3 µM (active) at Genome polyprotein and > 50 µM (active) in experiment [1].
Turning to `NC(=O)c1cccnc1Nc1cccc([N+](=O)[O-])c1`, in experiment [2], the EC50 is 2.98 µM (active).
Take `C=C(C)Cn1c(SCC#N)nc2ccccc2c1=O`: in experiment [3], the EC50 was > 50 µM (active).
On to `COc1cc(/C=C2/SC(=S)NC2=O)ccc1OS(=O)(=O)c1ccc(C)cc1`, for which the AC50 in experiment [4] is 3.21 µM (active). In addition, the IC50 in [5] was 3.44 µM (active); in experiment [1], 10.3 µM (active); in [6] it was 13.4 µM (not active); at Aminopeptidase N, 51.8 µM (active). Besides, the EC50 at Protein RecA was 11.9 µM (active).
In the case of `Cc1cccc(NC(=S)NC(=O)c2cc(-c3ccccc3)nc3ccccc23)c1`, the EC50 in [2] is 0.53 µM (active).
On to `CCN(CC)c1ccc(CNc2nc3ccccc3n2C)cc1`, for which, in experiment [3], the EC50 is > 50 µM (active).
On to `O=C1N2CCSC2=NC1(NS(=O)(=O)c1ccccc1)C(F)(F)F` (stereo not drawn), for which the EC50 in [2] was 2.27 µM (active).
`CCC(C)n1nc(O)cc1N` (stereo not drawn): on Estrogen receptor, the IC50 is on record as > 50 µM (not active).
For `CN(C(=S)NC(=O)c1ccc(F)cc1)C1CCCCC1`, the EC50 in [2] is 8.79 µM (active).
Take `Cc1ccc(NC(=O)CN(C)C2CCCCC2)cc1Br`: the EC50 in [3] is > 50 µM (active). For the same molecule, in experiment [7], the half-maximal inhibitory concentration (IC50) is 137 µM (active).
Turning to `COc1ccc(N2CCN(C(CNC(=O)c3ccc4c(c3)OCO4)c3ccco3)CC2)cc1` (stereo not drawn), the EC50 in [3] is > 50 µM (active).
